Data on one compound can be found in patent US5733904A, “Method for prevention and treatment of viral infectious diseases for viral suppression” (priority 1996, dated 1998).

Series [1] relates to myosin light chain kinase. Conditions: Cranial Nerve, 45 (9), 819-824, 1993; cited from earlier work.
The nature of the next series: Acute toxicity in mice. Set-up: species or system mouse (Slc: ddy, 5 weeks). Conditions: mouse, in vivo, iv, i. v., male. The protocol: Acute toxicity of the compounds of the present invention were conducted on rats and mice, and low toxicity was confirmed.
The test system of series [2] is Herpes simplex virus type I. Briefly: Inhibitory action for plaque formation of Herpes simplex virus type I. Type of series: cell-based. The conditions noted are these: mean of two, control 51. The protocol: Experiments were performed according to a method described in Antiviral Chemistry and Chemotherapy, 5 (6), 366-371, 1994 and Experimental Virology, Ed. by NIH Japan alumni assoc., Maruzen Publ. 1982, p. 65-78 or p. 331-340.
Vero cells cultured in the medium (Dulbecco's modified MEM added with 10% FBS) were detached by trypsin (Sigma Corp.). The detached cells were suspended by 2×10^5 cells/ml in the same medium, and placed in the wells of a 48 hole plate. The plate was incubated at 37° C. under 5% CO2 for about one day to complete a full-sheet of the cells in all wells. After incubation, cultured supernatant was removed. A solution (50 μl) containing the compound diluted with 4-fold stepwise dilution by virus culture medium (MM: Dulbecco's modified MEM added with 2% FBS), was added thereto.
A viral solution, 50 μl, in which the number of virus (parainfluenza virus or Herpes simplex virus type I) was adjusted to about 50 pfu (plaque forming unit)/50 μl by MM, was added to each well. MM 400 μl containing 1% methylcellulose was added in each well to provide a compound-added test group. A control group was prepared by adding the viral culture medium without adding the test compound.
The groups were incubated at 37° C. under 5% CO2 for three days to form plaques and the number of plaques in each well was counted.
The test compounds were FAS, and the compound of formula [I] where R^1 is hydroxy. The final concentration of the compound in the solution was set to 100, 25, 6.3 and 1.6 μg/ml, respectively. Each test group included 2 wells and a mean of the plaque numbers was obtained.

Series [3] relates to HIV-1 (LAV-1) persistently infected MOLT-4 cells with non-infected MOLT-4 cells. Briefly: Inhibitory activity of HIV syncytia formation: HIV-1 chronic-phase infection. Type of series: cell-based. How it is done: b) Activity of the medicament on HIV-1 chronic-phase infection:
Cells obtained by culturing MOLT-4 (culture condition: 37° C., 5% CO2 /95% air, RPMI medium (GIBCO Corp.) containing 10% FBS) were adjusted to a preferable number of cells (1×10^5 cells/50 μl). HIV-1 (LAV-1) preparation, 50 μl was added to the cell suspension, 50 μl and subjected to a mixing culture (infectious condition of HIV-1 to MOLT-4: M.O.I.=1). The infected cell mixture was cultured by exchanging a fresh culture medium every 3 days at a volume rate of 2:5. The culture was continued for more than 1 month to prepare persistent infected cells. The concentration of the persistent infected cells was adjusted to a preferable number of cells (1×10^5 cells/50 μl ) (the persistent infected cell preparation).
Cell preparation without infection was prepared by culturing MOLT-4 (culture condition: 37° C., 5% CO2 /95% air, RPMI medium (GIBCO Corp.) containing 10% FBS) and adjusting the concentration to a preferable number of cells (1×10^5 cells/50 μl).
The persistent infected cell preparation, 50 μl, was placed in the wells of a 96 hole microplate and the non-infected cell preparation, 50 μl, was added therein and cultured for 48 hours. Numbers of the formed syncytia were counted microscopically.
Each compound solution tested was added, 100 μl, at the time of mixing the persistent infected cell preparation with the non-infected cell preparation, to provide the final concentrations shown in FIG. 2 (medicament added test group).
The no-medicament-added group (control group) was prepared by replacing the compound solution, 100 μl.

The test system of series [4] is HIV-1 (LAV-1 strain) in MOLT-4 cells. In words: Inhibitory activity of HIV syncytia formation: HIV-1 acute-phase infection. It is filed as cell-based. The conditions noted are these: in concentrations of at least 1.0 μM; 48 hours. The protocol: a) Activity of the medicament on HIV-1 acute-phase infection:
Cells obtained by culturing MOLT-4 (American Type Culture Collection ATCC CRL-1582) in RPMI medium (GIBCO Corp.) containing 10% FBS (fetal bovine serum: GIBCO Corp.) (culture condition: 37° C., 5% CO2 /95% air) were prepared to aliquot number of cells (1×10^5 cells/50 μl). The cell suspension, 50 μl and the liquid preparation, 50 μl containing HIV-1 (LAV-1 strain, Wain-Hobson et al., Cell 40: 9-17, 1985) in RPMI medium with 10% FBS were put into each well of a 96 hole microplate and cultured for 48 hours (Infectious condition of MOLT-4 and HIV-1: M.O.I.=4.0).
Each compound was dissolved in RPMI medium containing 10% FBS at the final concentration as shown in FIG. 1 to prepare the medicament solution. The medicament solution, 100 μl was added to the mixture of MOLT-4 cell preparation and HIV-1 preparation at the time of mixing with MOLT-4 and HIV-1 to prepare the final volume of the liquid, 200 μl. The number of formed syncytia were microscopically counted.
Tested compounds were: FAS (fasudil hydrochloride, Chem. Pharm. Bull., 40 (3), 770-773, (1992)), C kinase inhibitor H-7 (1-5-isoquinolinylsulfonyl)-2-methyl-piperazine, Sigma Corp.), and calmodulin kinase II inhibitor KN-62 (1-(N,O-bis-[5-isoquinolinylsulfonyl]-N-methyl-L-tyrosyl)-4-phenyl-piperazine, Sigma Corp., Neuroscience Lett., 129, 47 (1991)) .
The control group without the compound was prepared by replacing the medicament solution, 100 μl.
Syncytium formation activity was calculated by comparing the syncytia formation in the test group to that of the control group in the following equation.
Syncytium formation activity=number of syncytia formed in the medicament-added group/number of syncytia formed in the no-medicament-added group.

For series [5], the system named is HIV-1 p24 gag protein, HIV-1 infected MOLT-4 cells. In words: Suppressive action of HIV production (p24 gag protein in culture supernatant, ELISA). It is filed as cell-based. The conditions noted are these: FIG. 4; 5 days; hydrochloride. The protocol:
Suppressive action of HIV production (extracellular release from cells). Cells obtained by culturing MOLT-4 (culture condition: 37° C., 5% CO2 /95% air. RPMI medium (GIBCO Corp.) containing 10% FBS) were adjusted to a preferable number of cells (1×10^5 cells/50 μl). The cell suspension, 50 μl, (infection with MOLT-4 and HIV-1: M.O.I.=1.0) were put in a 96 hole microplate and cultured for 1 hour to infect the cells. A solution of the compounds shown below, 100 μl, was added in each well and cultured for 5 days. The cultured solution was transferred into a plastic tube (Eppendorf Corp.) and centrifuged. The amount of p24 gag protein in the cultured supernatant medium wa assayed by using an Abbott kit (ELISA: Dinabot Co.). FAS, H-7 and KN-62 were used as the compound, and a solution without the compound was used as a control.
On the technique in general: In an ELISA, binding on a coated surface is turned into a signal by an enzyme label.

“Also recorded” adds a separate entry of the source. Bounds are passed on as bounds.

One may read the LD50 as the dose at which mortality reaches 50%. On to `Cl.O=S(=O)(c1cccc2cnccc12)N1CCCNCC1` [FAS, hexahydro-1-(5-isoquinoline-sulfonyl)-1H-1,4-diazepine hydrochloride], for which the “myosin light chain kinase inhibition” value in series [1] was “myosin light chain kinase inhibition”. In addition, in the series “Acute toxicity in mice”, the 50% lethal dose (LD50) was determined as 63.7 mg/kg. The “Plaque No.” value is recorded as 51 in series [2] (1.6 μg/ml), 46 in series [2] (6.3 μg/ml), 49 in series [2] (25 μg/ml) and 0 in series [2] (100 μg/ml). In addition, in series [3], the “viral transmission from persistent infected cells to non-infected cells” value is on record as “suppressed”. The “inhibitory activity for syncytium formation” value in series [3] (FIG. 2, 48 hours) was “extremely high suppressive action on syncytium formation”. The minimal effective concentration in series [3] (Human immunodeficiency virus 1, MOLT-4, 48 hours, persistent infected cells mixed with non-infected cells, read-out: concentration showing inhibitory activity for syncytium formation) was not below 3.75 µM. The “inhibition of syncytia formation” value in series [4] was 90%. Besides, the “p24 gag protein in the cultured supernatant medium / HIV-1 generation” value in series [5] is “decreased p24 gag protein in the cultured supernatant medium and suppressed HIV-1 generation; also recorded: apparently stronger than that of H-7 (-.increment.-) and KN-62 (-.quadrature.-)”.
